Values joined by “and” are separate entries in the source; they are usually repeats but may differ in a detail not shown here. Equal entries are not always repeated. “Also recorded” adds a separate entry of the source.
What was measured:
Type in all cases: biochemical
[1] = target: T1, SARS-CoV-2 M^pro enzyme (Severe acute respiratory syndrome coronavirus 2, UniProt P0DTD1); test: FRET-based enzyme assay and IC50 determination; conditions: for IC50: 4.6 μM enzyme, HEPES pH 6.5, read-out: IC50; for inhibition at 100 µM: 100 μM compound, in Figure 5; for inhibition at 200 µM: 200 μM compound
[2] = target: T1, SARS-CoV-2 M^pro enzyme; test: Promiscuity tests (pre-incubation, 10-fold enzyme concentration, BSA buffer); conditions: 100 μM compound
[3] = target: T1, SARS-CoV-2 M^pro enzyme; test: Inhibition kinetic study (Lineweaver–Burk, FRET assay); conditions: for inhibition mechanism: Lineweaver–Burk plot; for Ki: from slope of Lineweaver–Burk curves vs. inhibitor concentration, read-out: Ki
[4] = 4.6 μM enzyme, read-out: Inhibition % at 100 μM at 4.6 μM enzyme concentration
[5] = 46 μM enzyme (10-fold), read-out: Inhibition % at 100 μM at 46 μM enzyme concentration
[6] = 15 min pre-incubation with enzyme, read-out: Inhibition % at 100 μM with 15 min pre-incubation
[7] = no BSA, read-out: Inhibition % at 100 μM without BSA in assay buffer
[8] = pre-incubation test, read-out: Inhibition % at 100 μM without pre-incubation
[9] = read-out: Inhibition % at 100 μM with BSA in assay buffer, BSA in 20 mM HEPES pH 6.5, read-out: Inhibition % at 100 μM with 1g/mL BSA in assay buffer

| SMILES | IC50 [1] | inhibition at 100 µM [2, 4] | inhibition at 100 µM [2, 5] | inhibition at 100 µM [2, 6] | inhibition at 100 µM [2, 7] | inhibition at 100 µM [2, 8] | inhibition at 100 µM [2, 9] | inhibition mechanism [3] | inhibition at 100 µM [1] | inhibition at 200 µM [1] | Ki [3] |
| --- | --- | --- | --- | --- | --- | --- | --- | --- | --- | --- | --- |
| COC(=O)C1C(O)=C2C(=CC1C)Nc1ccccc1NC2c1ccc2ccccc2c1 (stereo not shown) [CD06] | 226 ± 17.5 µM | – | – | – | – | – | – | – | – | – | – |
| O=C(CSc1cnc2ccccc2n1)NC1CCCC1 [CB03] | – | 15% | 13.1% | 14.2% | 15.5% | 15.1% | 17.3% | competitive mechanism | – | – | – |
| CN(CCCO)c1cc2c3c(cccc3n1)C(=O)c1ccccc1-2 [GR04] | 346 ± 10 µM | 33.5% | 33.9% | 34.3% | 33% | 35.4% | 35% | noncompetitive model; also recorded: noncompetitive inhibition mechanism | 35% | 61% | 298 µM |
| CCCc1nc2c(o1)OC(N)=C(C#N)[C@H]2c1cccc(O)c1 [GR20] | 92 µM and 91.8 µM | 48.6% | 48% | – | 50% | – | 51.4% | mix inhibition model; also recorded: mixed inhibition mode | – | – | 89 µM |
| O=C(NC1CCNCC1)c1[nH]ncc1NC(=O)c1c(Cl)cccc1Cl [AT7519, reference compound] | – | – | – | – | – | – | – | – | 8% | 18% | – |
